Reference: US20240059698A1 (Accutar Biotechnology Inc., priority 2022, published 2024)

Tests used:
Type in all cases: cell-based
HCC827 cells = assay: Cell growth inhibition (CellTiter-Glo), HCC827; settings: Homo sapiens, 72 h, 3 days
Method: (§1) 2. Cell Growth Inhibition for HCC827, HCC827-SVD, HCC827-ASV, HCC827-YVMA, and A431.
(§2) HCC827(ATCC), HCC827-SVD, HCC827-ASV, and HCC827-YVMA cells were seeded in 96-well plates at 5000 cells/well in 90 μL of RPMI growth medium containing 10% FBS and 1% Penicillin Streptomycin. A431 (ATCC) cells were seeded in 96-well plates at 5000 cells/well in 90 μL of DMEM growth medium containing 10% FBS and 1% Penicillin Streptomycin. Cells were incubated at 37° C. overnight and then administered with 10 μL 10× test compounds prepared in the growth medium at various concentrations. After administration of the compounds, cells were incubated at 37° C. for 3 days. Before the CellTiter-Glo assay, the plates were equilibrated at room temperature for approximately 30 minutes. 100 ul of CellTiter-Glo reagent (Promega) was added to each well. The plates were then incubated at room temperature for 10 minutes and luminescence was recorded by the EnSight® multimode plate reader (PerkinElmer). Table 7 listed selected compounds in cellular growth assay.

[1] = test system: HCC827-YVMA cells (human ERBB2 exon20 insertion mutant A775_G776ins YVMA); assay: Cell growth inhibition (CellTiter-Glo), HCC827-YVMA; settings: 72 h, HCC827-YVMA cells, 3 days, CellTiter-Glo, read-out: Cell growth inhibition, GI50 (nM) HCC827-YVMA
In short: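 Growth in RPMI with 10% FBS was measured by CellTiter-Glo luminescence after 3 days at 37 °C with test compounds across a concentration range. The single-clone HCC827 lines carry a lentiviral YVMA (ERBB2) or ASV (EGFR) exon 20 insertion, with endogenous EGFR removed via sgRNA/Cas9.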

[2] = test system: HCC827-SVD cells (human EGFR exon 20 insertion mutant D770_N771insSVD); assay: Cell growth inhibition (CellTiter-Glo), HCC827-SVD; settings: 72 h, 3 days
In short: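 Growth read by CellTiter-Glo luminescence after 3-day compound exposure at 37 °C. Engineered clonal HCC827 line (native EGFR deleted by CRISPR, mutant EGFR re-expressed) plated at 5000 cells/well in 10% FBS RPMI the night before dosing.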

A431 cells = assay: Cell growth inhibition (CellTiter-Glo), A431; settings: Homo sapiens, A-431, 72 h, 3 days
Method: as §1, §2

Structure (SMILES) | GI50 (HCC827 cells) [nM] | GI50 [1] [nM] | GI50 [2] [nM] | GI50 (A431 cells) [nM]
C=CC(=O)N1CCC(c2c[nH]c3ncnc(Nc4ccc(Oc5ccnc(N6CCOC(C)C6)c5)cc4F)c23)CC1 (stereo in doubt) [Compound 141, (S)-1-(4-(4-((2-fluoro-4-((2-(2-methylmorpholino)pyridin-4-yl)oxy)phenyl)amino)-7H-pyrrolo[2,3-d]pyrimidin-5-yl)piperidin-1-yl)prop-2-en-1-one] | > 1000 | 50 to 200 | 50 to 200 | > 1000
C=CC(=O)N1CCC(c2c[nH]c3ncnc(Nc4ccc(OCc5cc(C)ccn5)c(Cl)c4)c23)CC1 [Compound 110, 1-(4-(4-((3-chloro-4-((4-methylpyridin-2-yl)methoxy)phenyl)amino)-7H-pyrrolo[2,3-d]pyrimidin-5-yl)piperidin-1-yl)prop-2-en-1-one] | < 50 | < 50 | < 50 | 200 to 1000
C=CC(=O)N1CCC(c2c[nH]c3ncnc(Nc4ccc(OCc5ccccn5)c(F)c4)c23)CC1 [Compound 111, 1-(4-(4-((3-fluoro-4-(pyridin-2-ylmethoxy)phenyl)amino)-7H-pyrrolo[2,3-d]pyrimidin-5-yl)piperidin-1-yl)prop-2-en-1-one] | < 50 | < 50 | < 50 | 50 to 200
C=CC(=O)N1CCC(c2c[nH]c3ncnc(Nc4ccc(OCc5cc(C(F)(F)F)ccn5)c(Cl)c4)c23)CC1 [Compound 113, 1-(4-(4-((3-chloro-4-((4-(trifluoromethyl)pyridin-2-yl)methoxy)phenyl)amino)-7H-pyrrolo[2,3-d]pyrimidin-5-yl)piperidin-1-yl)prop-2-en-1-one] | < 50 | < 50 | < 50 | < 50
C=CC(=O)N1CCC(c2c[nH]c3ncnc(Nc4ccc(OCc5cnccn5)c(Cl)c4)c23)CC1 [Compound 116, 1-[4-[4-[3-chloro-4-(pyrazin-2-ylmethoxy)anilino]-7H-pyrrolo[2,3-d]pyrimidin-5-yl]-1-piperidyl]prop-2-en-1-one] | < 50 | < 50 | < 50 | 50 to 200
C=CC(=O)N1CCC(c2c[nH]c3ncnc(Nc4ccc(OCc5cscn5)c(Cl)c4)c23)CC1 [Compound 119, 1-[4-[4-[3-chloro-4-(thiazol-4-ylmethoxy)anilino]-7H-pyrrolo[2,3-d]pyrimidin-5-yl]-1-piperidyl]prop-2-en-1-one] | < 50 | < 50 | < 50 | 50 to 200
C=CC(=O)N1CC(c2c[nH]c3ncnc(Nc4ccc(OCc5ccccn5)c(Cl)c4)c23)C1 [Compound 137, 1-(3-(4-((3-chloro-4-(pyridin-2-ylmethoxy)phenyl)amino)-7H-pyrrolo[2,3-d]pyrimidin-5-yl)azetidin-1-yl)prop-2-en-1-one] | 50 to 200 | < 50 | < 50 | > 1000
C=CC(=O)N1CCC(c2c[nH]c3ncnc(Nc4ccc(Oc5ccc(-c6cc(C)[nH]c(=O)c6)cc5)c(Cl)c4F)c23)CC1 [Compound 138, 4-(4-(4-((5-(1-acryloylpiperidin-4-yl)-7H-pyrrolo[2,3-d]pyrimidin-4-yl)amino)-2-chloro-3-fluorophenoxy)phenyl)-6-methylpyridin-2(1H)-one] | > 1000 | 200 to 1000 | 50 to 200 | > 1000
C=CC(=O)N1CCC(c2c[nH]c3ncnc(Nc4ccc(Oc5ccnc(N6C[C@H](OC)[C@H](OC)C6)c5)cc4F)c23)CC1 [Compound 139, 1-(4-(4-((4-((2-((3R,4S)-3,4-dimethoxypyrrolidin-1-yl)pyridin-4-yl)oxy)-2-fluorophenyl)amino)-7H-pyrrolo[2,3-d]pyrimidin-5-yl)piperidin-1-yl)prop-2-en-1-one] | > 1000 | > 1000 | 50 to 200 | > 1000
C=CC(=O)N1CCC(c2c[nH]c3ncnc(Nc4ccc(Oc5ccnc(N6CCC(C(F)(F)F)C6)c5)cc4F)c23)CC1 (stereo not shown) [Compound 140, 1-(4-(4-((2-fluoro-4-((2-(3-(trifluoromethyl)pyrrolidin-1-yl)pyridin-4-yl)oxy)phenyl)amino)-7H-pyrrolo[2,3-d]pyrimidin-5-yl)piperidin-1-yl)prop-2-en-1-one] | 200 to 1000 | 50 to 200 | 50 to 200 | > 1000
C=CC(=O)N1CCC(c2c[nH]c3ncnc(Nc4ccc(Oc5ccnc(N6C[C@@H](C)O[C@@H](C)C6)c5)c(Cl)c4F)c23)CC1 [Compound 142, 1-(4-(4-((3-chloro-4-((2-((2S,6R)-2,6-dimethylmorpholino)pyridin-4-yl)oxy)-2-fluorophenyl)amino)-7H-pyrrolo[2,3-d]pyrimidin-5-yl)piperidin-1-yl)prop-2-en-1-one] | > 1000 | < 50 | < 50 | > 1000
C=CC(=O)N1CCC(c2c[nH]c3ncnc(Nc4ccc(Cl)c(Cl)c4F)c23)CC1 [Compound 143, 1-(4-(4-((3,4-dichloro-2-fluorophenyl)amino)-7H-pyrrolo[2,3-d]pyrimidin-5-yl)piperidin-1-yl)prop-2-en-1-one] | < 50 | < 50 | < 50 | > 1000
C=CC(=O)N1CCC(c2c[nH]c3ncnc(Nc4ccc(Oc5ccnc(N6CCC(F)(F)C6)c5)cc4F)c23)CC1 [Compound 145] | > 1000 | 200 to 1000 | 200 to 1000 | > 1000
C=CC(=O)N1CCC(c2c[nH]c3ncnc(Nc4ccc(Oc5ccnc(NC6CCOCC6)c5)cc4F)c23)CC1 [Compound 146, 1-(4-(4-((2-fluoro-4-((2-((tetrahydro-2H-pyran-4-yl)amino)pyridin-4-yl)oxy)phenyl)amino)-7H-pyrrolo[2,3-d]pyrimidin-5-yl)piperidin-1-yl)prop-2-en-1-one] | > 1000 | 200 to 1000 | 200 to 1000 | > 1000
C=CC(=O)N1CCC(c2c[nH]c3ncnc(Nc4ccc(Oc5ccnc(N6CCC[C@@H](OC)C6)c5)cc4F)c23)CC1 [Compound 147, (R)-1-(4-(4-((2-fluoro-4-((2-(3-methoxypiperidin-1-yl)pyridin-4-yl)oxy)phenyl)amino)-7H-pyrrolo[2,3-d]pyrimidin-5-yl)piperidin-1-yl)prop-2-en-1-one] | > 1000 | 50 to 200 | 50 to 200 | > 1000
C=CC(=O)N1CCC(c2c[nH]c3ncnc(Nc4ccc(Oc5ccnc(N6CC7C(C6)C7(F)F)c5)cc4F)c23)CC1 (stereo not shown) [Compound 148, 1-(4-(4-((4-((2-(6,6-difluoro-3-azabicyclo[3.1.0]hexan-3-yl)pyridin-4-yl)oxy)-2-fluorophenyl)amino)-7H-pyrrolo[2,3-d]pyrimidin-5-yl)piperidin-1-yl)prop-2-en-1-one] | > 1000 | 200 to 1000 | 50 to 200 | > 1000
C=CC(=O)N1CCC(c2n[nH]c3ncnc(Nc4ccc(Oc5ccnc(NC(=O)C6CCOCC6)c5)cc4F)c23)CC1 [Compound 194, N-(4-(4-((3-(1-acryloylpiperidin-4-yl)-1H-pyrazolo[3,4-d]pyrimidin-4-yl)amino)-3-fluorophenoxy)pyridin-2-yl)tetrahydro-2H-pyran-4-carboxamide] | > 1000 | 200 to 1000 | 200 to 1000 | –
